Assay results taken from ChEMBL document CHEMBL1143853, “Daptomycin nonsusceptibility in Staphylococcus aureus with reduced vancomycin susceptibility is independent of alterations in MprF” (2007).
Values after ≈ are worked out from the molar mass of the structure shown.

How the values were obtained:
Staphylococcus aureus [1] = test: Antimicrobial activity against methicillin-resistant Staphylococcus aureus A8796 by agar dilution method
Staphylococcus aureus [2] = test: Antimicrobial activity against methicillin-resistant Staphylococcus aureus A6298 by agar dilution method; format: functional
Staphylococcus aureus [3] = test: Antimicrobial activity against methicillin-resistant Staphylococcus aureus A6224 by agar dilution method
Staphylococcus aureus [4] = test: Antimicrobial activity against methicillin-resistant Staphylococcus aureus A8799 with mprF S337L mutation by agar dilution method; format: functional
Staphylococcus aureus [5] = test: Antimicrobial activity against methicillin-resistant Staphylococcus aureus A6300 by agar dilution method; format: functional
Staphylococcus aureus [6] = test: Antimicrobial activity against methicillin-resistant Staphylococcus aureus A8094 by agar dilution method; format: functional
Staphylococcus aureus [7] = test: Antimicrobial activity against methicillin-resistant Staphylococcus aureus A8090 by agar dilution method
Staphylococcus aureus [8] = test: Antimicrobial activity against methicillin-resistant Staphylococcus aureus A6226 by agar dilution method; format: functional

## CCCCCCCCCC(=O)N[C@@H](Cc1c[nH]c2ccccc12)C(=O)N[C@H](CC(N)=O)C(=O)N[C@@H](CC(=O)O)C(=O)N[C@@H]1C(=O)NCC(=O)N[C@@H](CCCN)C(=O)N[C@@H](CC(=O)O)C(=O)N[C@H](C)C(=O)N[C@@H](CC(=O)O)C(=O)NCC(=O)N[C@H](CO)C(=O)N[C@@H]([C@H](C)CC(=O)O)C(=O)N[C@@H](CC(=O)c2ccccc2N)C(=O)O[C@@H]1C
Staphylococcus aureus [1]
  MIC: 0.5 µg/mL (≈ 0.309 µM)
Staphylococcus aureus [2]
  MIC: 2 µg/mL (≈ 1.23 µM)
Staphylococcus aureus [3]
  MIC: 0.5 µg/mL (≈ 0.309 µM)
Staphylococcus aureus [4]
  MIC: 2 µg/mL (≈ 1.23 µM)
Staphylococcus aureus [5]
  MIC: 1 µg/mL (≈ 0.617 µM)
Staphylococcus aureus [6]
  MIC: 2 µg/mL (≈ 1.23 µM)
Staphylococcus aureus [7]
  MIC: 0.5 µg/mL (≈ 0.309 µM)
Staphylococcus aureus [8]
  MIC: 2 µg/mL (≈ 1.23 µM)
